Data from patent US11639350B2, “Heteroaryldihydropyrimidine derivatives and methods of treating hepatitis B infections” (Janssen Pharmaceutica NV, priority 2018, dated 2023).
pEC50: −log10 of the molar value.

Tests used:
[1] = Cytotoxicity determination in HepG2.2.15 cells (CCK-8); type: cell-based; settings: human, 6 days of compound treatment, CCK-8, highest concentration 100 μM
In short: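 HepG2.2.15 cells seeded at 5,000 cells/well in 2% FBS medium, incubated overnight at 37° C., then treated 6 days with compounds (8 points, 3-fold dilutions, top 100 μM), medium refreshed once midway. CCK-8 added for 2.5 h; A450 read against 630 nm reference; CC50 calculated, averaged over repeats.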

HBV = HBV inhibitory activity: HBV DNA in the culture medium of HepG2.2.15 cells by q-PCR; type: cell-based; settings: Hepatitis B virus, HepG2.2.15, 144 h, HepG2.2.15 cells, 6 days of compound treatment, HBV DNA in culture medium by q-PCR, highest concentration 10 μM; read-out: EC50
In short: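 HepG2.2.15 cells in 2% FBS medium, 40,000 per well, treated 6 days with compound (medium refreshed once), eight 3-fold dilutions from 10 μM top. HBV DNA extracted from culture medium and quantified by q-PCR; EC50 averaged over repeats. Cytotoxicity run in parallel at 5,000 cells per well, top 100 μM, giving CC50.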

## COC(=O)C1=C([C@H]2CC[C@H](NS(N)(=O)=O)CC2)NC(c2nccs2)=NC1c1ccc(F)c(F)c1Cl (relative stereo) [Compound 238, (trans)-Methyl 4-(2-chloro-3,4-difluorophenyl)-6-(4-(sulfamoylamino)cyclohexyl)-2-(thiazol-2-yl)-1,4-dihydropyrimidine-5-carboxylate]
[1]
  CC50 at 6 days: 13.4 µM
HBV
  pEC50: 7.28

## COC(=O)C1=C([C@H]2CC[C@H](NS(C)(=O)=O)CC2)NC(c2ncc(F)cc2F)=NC1c1ccc(F)cc1Cl (single isomer, unassigned) [Compound 396B, (trans)-Methyl 4-(2-chloro-4-fluorophenyl)-2-(3,5-difluoropyridin-2-yl)-6-(4-(methylsulfonamido)cyclohexyl)-1,4-dihydropyrimidine-5-carboxylate]
[1]
  CC50 at 6 days: 22.5 µM
HBV
  pEC50: 7.70

## CCOC(=O)C1=C(C2CCN(S(=O)(=O)C3CC(C(=O)O)C3)CC2)NC(c2nccs2)=NC1c1ccc(F)c(F)c1Br (stereo in doubt) [Compound 199B, (trans)-3-((4-(6-(2-bromo-3,4-difluorophenyl)-5-(ethoxycarbonyl)-2-(thiazol-2-yl)-3,6-dihydropyrimidin-4-yl)piperidin-1-yl)sulfonyl)cyclobutanecarboxylic Acid]
[1]
  CC50 at 6 days: 14.2 µM
HBV
  pEC50: > 8.34

## COC(=O)C1=C(C2CC3CCC(C2)N3S(C)(=O)=O)NC(c2nccs2)=NC1c1ccc(F)cc1Cl (single isomer, unassigned) [Compound 38B, 4-(2-Chloro-4-fluoro-phenyl)-6-(8-methanesulfonyl-8-aza-bicyclo[3.2.1]oct-3-yl)-2-thiazol-2-yl-1,4-dihydro-pyrimidine-5-carboxylic Acid Methyl Ester]
[1]
  CC50 at 6 days: 34.1 µM
HBV
  pEC50: 6.62

## COC(=O)C1=C([C@@H]2CO[C@@H](C(=O)O)C2)NC(c2nccs2)=N[C@H]1c1cccc(F)c1Cl [Compound 212A]
[1]
  CC50 at 6 days: > 100 µM
HBV
  pEC50: 5.99

## COC(=O)C1=C(C2CCN(S(=O)(=O)[C@H]3C[C@H](C(=O)O)C3)CC2)NC(c2nccs2)=NC1c1ccc(F)c(F)c1C (stereo partly drawn) [Compound 309C, (trans)-3-((4-(6-(3,4-Difluoro-2-methylphenyl)-5-(methoxycarbonyl)-2-(thiazol-2-yl)-3,6-dihydropyrimidin-4-yl)piperidin-1-yl)sulfonyl)cyclobutanecarboxylic Acid]
[1]
  CC50 at 6 days: 36.2 µM
HBV
  pEC50: 7.33

## COC(=O)C1=C(C2CCN(C(C)=O)CC2)NC(c2nccs2)=NC1c1ccc(F)cc1Cl (stereo not drawn) [Compound 2, Methyl 6-(1-acetylpiperidin-4-yl)-4-(2-chloro-4-fluorophenyl)-2-(thiazol-2-yl)-1,4-dihydropyrimidine-5-carboxylate]
[1]
  CC50 at 6 days: 98.4 µM
HBV
  pEC50: 6.63

## COC(=O)C1=C(C2CCCO2)NC(c2nccs2)=NC1c1ccc(F)cc1Cl (single isomer, unassigned) [Compound 70D, Methyl 4-(2-chloro-4-fluorophenyl)-6-(tetrahydrofuran-2-yl)-2-(thiazol-2-yl)-1,4-dihydropyrimidine-5-carboxylate]
[1]
  CC50 at 6 days: 22.6 µM
HBV
  pEC50: 6.85

## COC(=O)C1=C([C@H]2CC[C@H](N(CCO)CC(F)(F)F)CC2)NC(c2nccs2)=NC1c1ccc(F)c(F)c1Cl (single isomer, unassigned) [Compound 434B, (trans)-Methyl 4-(2-chloro-3,4-difluorophenyl)-6-(4-((2-hydroxyethyl)(2,2,2-trifluoroethyl)amino)cyclohexyl)-2-(thiazol-2-yl)-1,4-dihydropyrimidine-5-carboxylate]
[1]
  CC50 at 6 days: 6.8 µM
HBV
  pEC50: 6.89

## COC(=O)C1=C(C2CCN(S(=O)(=O)[C@H]3CC[C@H](CC(=O)O)CC3)CC2)NC(c2nccs2)=NC1c1ccc(F)c(F)c1Cl (relative stereo) [Compound 478A, (trans)-2-(4-((4-(6-(2-Chloro-3,4-difluorophenyl)-5-(methoxycarbonyl)-2-(thiazol-2-yl)-3,6-dihydropyrimidin-4-yl)piperidin-1-yl)sulfonyl)cyclohexyl)acetic Acid]
[1]
  CC50 at 6 days: 9.9 µM
HBV
  pEC50: 7.68

## CNS(=O)(=O)[C@H]1CC[C@H](C2=C(C(=O)OC)C(c3ccc(F)c(F)c3Cl)N=C(c3c(F)cc(F)cc3F)N2)CC1 (single isomer, unassigned) [Compound 167A, methyl 4-(2-chloro-3,4-difluorophenyl)-6-((trans)-4-(N-methylsulfamoyl)cyclohexyl)-2-(2,4,6-trifluorophenyl)-1,4-dihydropyrimidine-5-carboxylate]
[1]
  CC50 at 6 days: 11.6 µM
HBV
  pEC50: 7.47

## COC(=O)C1=C(C2COC2)NC(c2nccs2)=NC1c1ccc(F)cc1Cl (racemic) [Compound 217, Methyl 4-(2-chloro-4-fluorophenyl)-6-(oxetan-3-yl)-2-(thiazol-2-yl)-1,4-dihydropyrimidine-5-carboxylate]
[1]
  CC50 at 6 days: 29.6 µM
HBV
  pEC50: 6.29

## COC(=O)C1=C([C@H]2CC[C@H](N(CCO)S(C)(=O)=O)CC2)NC(c2nccs2)=NC1c1ccc(F)c(F)c1Cl (single isomer, unassigned) [Compound 315D, (trans)-Methyl 4-(2-chloro-3,4-difluorophenyl)-6-(4-(N-(2-hydroxyethyl)methylsulfonamido)cyclohexyl)-2-(thiazol-2-yl)-1,4-dihydropyrimidine-5-carboxylate]
[1]
  CC50 at 6 days: 12.6 µM
HBV
  pEC50: 7.60

## COC(=O)C1=C(C2CCN(S(=O)(=O)[C@H]3C[C@H](C(=O)O)C3)CC2)NC(c2nccs2)=NC1c1ccc(F)c(F)c1Cl (single isomer, unassigned) [Compound 232B, (trans)-3-((4-(6-(2-Chloro-3,4-difluorophenyl)-5-(methoxycarbonyl)-2-(thiazol-2-yl)-3,6-dihydropyrimidin-4-yl)piperidin-1-yl)sulfonyl)cyclobutanecarboxylic Acid]
[1]
  CC50 at 6 days: 60 µM
HBV
  pEC50: 7.24

## CCOC(=O)C1=C([C@@H]2C[C@H](NC(C)=O)CO2)NC(c2nccs2)=NC1c1cccc(F)c1Cl (relative stereo) [Compound 262, (cis)-Ethyl 6-(4-acetamidotetrahydrofuran-2-yl)-4-(2-chloro-3-fluorophenyl)-2-(thiazol-2-yl)-1,4-dihydropyrimidine-5-carboxylate]
[1]
  CC50 at 6 days: 75.8 µM
HBV
  pEC50: 6.40

## COC(=O)C1=C([C@H]2C[C@H](NS(C)(=O)=O)C2)NC(c2nccs2)=NC1c1ccc(F)cc1Cl (single isomer, unassigned) [Compound 206B, (trans)-Methyl 4-(2-chloro-4-fluorophenyl)-6-(3-(methylsulfonamido)cyclobutyl)-2-(thiazol-2-yl)-1,4-dihydropyrimidine-5-carboxylate]
[1]
  CC50 at 6 days: 26.1 µM
HBV
  pEC50: 6.97

## COC(=O)C1=C([C@H]2CCCC(C(=O)O)C2)NC(c2nccs2)=NC1c1cccc(F)c1Cl (stereo in doubt) [Compound 25, cis-3-(6-(2-Chloro-3-fluorophenyl)-5-(methoxycarbonyl)-2-(thiazol-2-yl)-3,6-dihydropyrimidin-4-yl)cyclohexanecarboxylic Acid]
[1]
  CC50 at 6 days: 35.3 µM
HBV
  pEC50: 6.78

## CCOC(=O)C1=C([C@H]2CC[C@H](C(=O)OC)CC2)NC(c2nccs2)=NC1c1ccc(F)cc1Cl (single isomer, unassigned) [Compound 20X, Ethyl 4-(2-chloro-4-fluorophenyl)-6-(trans-4-(methoxycarbonyl)-cyclohexyl)-2-(thiazol-2-yl)-1,4-dihydropyrimidine-5-carboxylate]
[1]
  CC50 at 6 days: 27.2 µM
HBV
  pEC50: 7.28
